Assays:
COLO-741 = test: cells; assay type: functional, cell-based; conditions: Homo sapiens
Description: SANGER: Inhibition of human COLO-741 cell growth in a cell viability assay.

GMS-10 = test: cells; assay type: functional, cell-based; conditions: Homo sapiens;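 further: growth inhibition of GMS-10 cells, read out as cell viability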
Description: SANGER: Inhibition of human GMS-10 cell growth in a cell viability assay.

H-EMC-SS = test: cells; assay type: functional, cell-based; conditions: Homo sapiens
Description: SANGER: Inhibition of human H-EMC-SS cell growth in a cell viability assay.

HCC1419 = test: cells; assay type: functional, cell-based; conditions: Homo sapiens;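 further: growth inhibition of human HCC1419 cells, read out as cell viability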
Description: SANGER: Inhibition of human HCC1419 cell growth in a cell viability assay.

HCC1569 = test: cells; assay type: functional, cell-based; conditions: Homo sapiens;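 further: growth inhibition of human HCC1569 cells, read out with a cell viability assay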
Description: SANGER: Inhibition of human HCC1569 cell growth in a cell viability assay.

HSC-2 = test: cells; assay type: functional, cell-based; conditions: Homo sapiens;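 further: growth inhibition of human HSC-2 cells, read out by a cell viability assay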
Description: SANGER: Inhibition of human HSC-2 cell growth in a cell viability assay.

HT-3 = test: cells; assay type: functional, cell-based; conditions: Homo sapiens;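 further: growth inhibition measured with a cell viability readout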
Description: SANGER: Inhibition of human HT-3 cell growth in a cell viability assay.

IGROV-1 = test: cells; assay type: functional, cell-based; conditions: Homo sapiens;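 further: reduction of IGROV-1 cell growth, read out with a viability assay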
Description: SANGER: Inhibition of human IGROV-1 cell growth in a cell viability assay.

KNS-62 = test: cells; assay type: functional, cell-based; conditions: Homo sapiens;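 further: inhibition of cell growth, read out with a cell viability assay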
Description: SANGER: Inhibition of human KNS-62 cell growth in a cell viability assay.

KP-4 = test: cells; assay type: functional, cell-based; conditions: Homo sapiens;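 further: human KP-4 cells, with growth inhibition read out through a cell viability assay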
Description: SANGER: Inhibition of human KP-4 cell growth in a cell viability assay.

MDA-MB-175-VII = test: cells; assay type: functional, cell-based; conditions: Homo sapiens
MKN-1 = test: cells; assay type: functional, cell-based; conditions: Homo sapiens;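 further: growth inhibition of human MKN1 cells, read out by a cell viability measurement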
Description: SANGER: Inhibition of human MKN1 cell growth in a cell viability assay.

NB14 = test: cells; assay type: functional, cell-based, Homo sapiens; conditions: Homo sapiens, NB14;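 further: growth inhibition of NB14 cells measured with a cell viability assay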
Description: SANGER: Inhibition of human NB14 cell growth in a cell viability assay.

NBsusSR = test: cells; assay type: functional, cell-based; conditions: Homo sapiens;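 further: growth inhibition of the human cell line, read out with a cell viability assay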
Description: SANGER: Inhibition of human NBsusSR cell growth in a cell viability assay.

NCI-H1048 = test: cells; assay type: functional, cell-based; conditions: Homo sapiens;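 further: growth inhibition of human NCI-H1048 cells, read out with a cell viability assay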
Description: SANGER: Inhibition of human NCI-H1048 cell growth in a cell viability assay.

NCI-H1651 = test: cells; assay type: functional, cell-based; conditions: Homo sapiens;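 further: Read-out is a cell viability assay, with IC50 expressing inhibition of NCI-H1651 cell growth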
Description: SANGER: Inhibition of human NCI-H1651 cell growth in a cell viability assay.

NCI-H1792 = test: cells; assay type: functional, cell-based; conditions: Homo sapiens;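 further: growth inhibition of human NCI-H1792 cells, read out as cell viability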
Description: SANGER: Inhibition of human NCI-H1792 cell growth in a cell viability assay.

NCI-H2347 = test: cells; assay type: functional, cell-based; conditions: Homo sapiens;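 further: growth inhibition of the cell line, read out with a cell viability assay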
Description: SANGER: Inhibition of human NCI-H2347 cell growth in a cell viability assay.

NCI-H2452 = test: cells; assay type: functional, cell-based; conditions: Homo sapiens;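 further: growth inhibition of NCI-H2452 cells, read out with a cell viability assay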
Description: SANGER: Inhibition of human NCI-H2452 cell growth in a cell viability assay.

NCI-H28 = test: cells; assay type: functional, cell-based; conditions: Homo sapiens;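 further: growth inhibition of human NCI-H28 cells, read out as cell viability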
Description: SANGER: Inhibition of human NCI-H28 cell growth in a cell viability assay.

NCI-H650 = test: cells; assay type: functional, cell-based; conditions: Homo sapiens;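 further: growth inhibition of NCI-H650 cells, read out by a viability assay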
Description: SANGER: Inhibition of human NCI-H650 cell growth in a cell viability assay.

NCI-H810 = test: cells; assay type: functional, cell-based; conditions: Homo sapiens;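 further: IC50 reflects inhibition of cancer cell line growth, read out with a cell viability assay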
Description: SANGER: Inhibition of human NCI-H810 cell growth in a cell viability assay.

OC-314 = test: cells; assay type: functional, cell-based; conditions: Homo sapiens
Description: SANGER: Inhibition of human OC-314 cell growth in a cell viability assay.

OVCAR-3 = test: cells; assay type: functional, cell-based; conditions: Homo sapiens;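 further: growth inhibition of human OVCAR-3 cells, determined by a cell viability assay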
Description: SANGER: Inhibition of human OVCAR-3 cell growth in a cell viability assay.

PC-3 = test: cells; assay type: functional, cell-based; conditions: Homo sapiens;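 further: cell viability assay measuring growth inhibition of PC-3 cells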
Description: SANGER: Inhibition of human PC-3 cell growth in a cell viability assay.

RH-18 = test: cells; assay type: functional, cell-based; conditions: Homo sapiens, Rh18;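 further: growth inhibition of human RH-18 cells, read out with a cell viability assay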
Description: SANGER: Inhibition of human RH-18 cell growth in a cell viability assay.

RO82-W-1 = test: cells; assay type: functional, cell-based; conditions: Homo sapiens;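 further: growth inhibition of human RO82-W-1 cells, measured with a cell viability assay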
Description: SANGER: Inhibition of human RO82-W-1 cell growth in a cell viability assay.

RT-112 = test: cells; assay type: functional, cell-based; conditions: Homo sapiens
Description: SANGER: Inhibition of human RT-112 cell growth in a cell viability assay.

SCC-4 = test: cells; assay type: functional, cell-based; conditions: Homo sapiens;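 further: growth inhibition of human SCC-4 cells, read out as cell viability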
Description: SANGER: Inhibition of human SCC-4 cell growth in a cell viability assay.

SK-MEL3 = test: cells; assay type: functional, cell-based, SK-MEL-3; conditions: Homo sapiens;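 further: growth inhibition of human SK-MEL-3 cells, read out with a cell viability assay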
Description: SANGER: Inhibition of human SK-MEL-3 cell growth in a cell viability assay.

SNU-449 = test: cells; assay type: functional, cell-based; conditions: Homo sapiens
Description: SANGER: Inhibition of human SNU-449 cell growth in a cell viability assay.

T-24 = test: cells; assay type: functional, cell-based; conditions: Homo sapiens;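 further: growth inhibition of T-24 cells, read out with a cell viability assay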
Description: SANGER: Inhibition of human T-24 cell growth in a cell viability assay.

T84 = test: cells; assay type: functional, cell-based; conditions: Homo sapiens;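 further: growth inhibition measured with a cell viability readout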
Description: SANGER: Inhibition of human T84 cell growth in a cell viability assay.

647-V = test: cells; assay type: functional, cell-based; conditions: Homo sapiens;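 further: growth inhibition of 647-V cells, read out with a cell viability assay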
Description: SANGER: Inhibition of human 647-V cell growth in a cell viability assay.

A 172 = test: cells; assay type: functional, cell-based; conditions: Homo sapiens;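 further: growth inhibition of A172 cells, measured with a cell viability readout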
Description: SANGER: Inhibition of human A172 cell growth in a cell viability assay.

A2058 = test: cells; assay type: functional, cell-based; conditions: Homo sapiens;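 further: reduction of A2058 cell growth, read out with a viability assay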
Description: SANGER: Inhibition of human A2058 cell growth in a cell viability assay.

A549 = test: cells; assay type: functional, cell-based; conditions: Homo sapiens;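 further: growth inhibition of A549 cells, read out with a cell viability assay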
Description: SANGER: Inhibition of human A549 cell growth in a cell viability assay.

ACHN = test: cells; assay type: functional, cell-based; conditions: Homo sapiens;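 further: cell viability read-out used to gauge how strongly growth of human ACHN cells is suppressed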
Description: SANGER: Inhibition of human ACHN cell growth in a cell viability assay.

BPH-1 = test: cells; assay type: functional, cell-based; conditions: Homo sapiens;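 further: cell viability assay measuring growth inhibition of human BPH-1 cells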
Description: SANGER: Inhibition of human BPH-1 cell growth in a cell viability assay.

CAL-51 = test: cells; assay type: functional, cell-based; conditions: Homo sapiens;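 further: human CAL-51 cell line, growth inhibition read out via a cell viability assay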
Description: SANGER: Inhibition of human CAL-51 cell growth in a cell viability assay.

CAL-85-1 = test: cells; assay type: functional, cell-based; conditions: Homo sapiens;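 further: growth inhibition of human CAL-85-1 cells, read out with a cell viability assay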
Description: SANGER: Inhibition of human CAL-85-1 cell growth in a cell viability assay.

U-118-MG = test: cells; assay type: functional, cell-based; conditions: Homo sapiens
Description: SANGER: Inhibition of human U-118-MG cell growth in a cell viability assay.

ZR-75-30 = test: cells; assay type: functional, cell-based; conditions: Homo sapiens;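 further: growth inhibition of ZR-75-30 cells, measured with a cell viability readout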
Description: SANGER: Inhibition of human ZR-75-30 cell growth in a cell viability assay.

CFPAC-1 = test: cells; assay type: functional, cell-based; conditions: Homo sapiens;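 further: cell viability readout used to gauge suppression of CFPAC-1 cell proliferation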
Description: SANGER: Inhibition of human CFPAC-1 cell growth in a cell viability assay.

EW-12 = test: SANGER: Inhibition of human EW-12 cell growth in a cell viability assay.; assay type: functional, cell-based; conditions: Homo sapiens, EW-12
IMR-5 = test: cells; assay type: functional, cell-based, Homo sapiens; conditions: Homo sapiens, IMR-5; read-out: IC50;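 further: growth inhibition of human IMR-5 cells, read out with a cell viability assay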
Description: SANGER: Inhibition of human IMR-5 cell growth in a cell viability assay.

NCI-H1694 = test: cells; assay type: functional, cell-based, Homo sapiens; conditions: Homo sapiens, NCI-H1694;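 further: cell viability assay measuring inhibition of growth in human NCI-H1694 cells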
Description: SANGER: Inhibition of human NCI-H1694 cell growth in a cell viability assay.

NCI-H2227 = test: cells; assay type: functional, cell-based; conditions: Homo sapiens;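 further: growth inhibition of the human cell line, read out with a cell viability assay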
Description: SANGER: Inhibition of human NCI-H2227 cell growth in a cell viability assay.

NCI-H716 = test: cells; assay type: functional, cell-based, Homo sapiens; conditions: Homo sapiens, NCI-H716;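 further: growth inhibition of human NCI-H716 cells, measured by a cell viability assay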
Description: SANGER: Inhibition of human NCI-H716 cell growth in a cell viability assay.

NCI-H889 = test: cells; assay type: functional, cell-based, Homo sapiens; conditions: Homo sapiens, NCI-H889;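 further: cell growth inhibition of the cell line, read out with a viability assay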
Description: SANGER: Inhibition of human NCI-H889 cell growth in a cell viability assay.

SKM-1 = test: SANGER: Inhibition of human SKM-1 cell growth in a cell viability assay.; assay type: functional, cell-based; conditions: Homo sapiens, SKM-1

Work on CC1=C(/C=C/C(C)=C/C=C/C(C)=C/C(=O)O)C(C)(C)CCC1 [TRETINOIN] yielded an IC50 (COLO-741) greater than 10 µM, an IC50 (GMS-10) greater than 10 µM and an IC50 (H-EMC-SS) greater than 10 µM. It also gave an IC50 (HCC1419) greater than 10 µM, an IC50 (HCC1569) greater than 10 µM and an IC50 (HSC-2) greater than 10 µM. The IC50 (HT-3) was greater than 10 µM, the IC50 (IGROV-1) was greater than 10 µM and the IC50 (KNS-62) was greater than 10 µM. For the same compound, the IC50 (KP-4) was greater than 10 µM, the IC50 (MDA-MB-175-VII) was greater than 10 µM and the IC50 (MKN-1) was greater than 10 µM. It also gave an IC50 (NB14) of 7.13 µM, an IC50 (NBsusSR) of 1.45 µM and an IC50 (NCI-H1048) greater than 10 µM. The IC50 (NCI-H1651) was greater than 10 µM, the IC50 (NCI-H1792) was greater than 10 µM and the IC50 (NCI-H2347) was greater than 10 µM. The IC50 (NCI-H2452) was greater than 10 µM, the IC50 (NCI-H28) was greater than 10 µM and the IC50 (NCI-H650) was greater than 10 µM. It also gave an IC50 (NCI-H810) greater than 10 µM, an IC50 (OC-314) greater than 10 µM and an IC50 (OVCAR-3) greater than 10 µM. The IC50 (PC-3) was greater than 10 µM, the IC50 (RH-18) was greater than 10 µM and the IC50 (RO82-W-1) was greater than 10 µM. It also gave an IC50 (RT-112) greater than 10 µM, an IC50 (SCC-4) greater than 10 µM and an IC50 (SK-MEL3) greater than 10 µM. For the same compound, the IC50 (SNU-449) was greater than 10 µM, the IC50 (T-24) was greater than 10 µM and the IC50 (T84) was greater than 10 µM. The IC50 (647-V) was greater than 10 µM, the IC50 (A 172) was greater than 10 µM and the IC50 (A2058) was greater than 10 µM. The IC50 (A549) was greater than 10 µM, the IC50 (ACHN) was greater than 10 µM and the IC50 (BPH-1) was 7.44 µM. For the same compound, the IC50 (CAL-51) was greater than 10 µM, the IC50 (CAL-85-1) was greater than 10 µM and the IC50 (U-118-MG) was greater than 10 µM. For the same compound, the IC50 (ZR-75-30) was greater than 10 µM and the IC50 (CFPAC-1) was greater than 10 µM.

Compound CS(=O)(=O)N1CCN(Cc2cc3nc(-c4cccc5[nH]ncc45)nc(N4CCOCC4)c3s2)CC1 [PICTILISIB] has an IC50 (COLO-741) greater than 4 µM, an IC50 (GMS-10) greater than 4 µM and an IC50 (H-EMC-SS) greater than 4 µM. The IC50 (HCC1419) was 2.21 µM, the IC50 (HCC1569) was greater than 4 µM and the IC50 (HSC-2) was greater than 4 µM. For the same compound, the IC50 (HT-3) was 2.49 µM, the IC50 (IGROV-1) was 0.634 µM and the IC50 (KNS-62) was 3.92 µM. For the same compound, the IC50 (KP-4) was greater than 4 µM, the IC50 (MDA-MB-175-VII) was 0.353 µM and the IC50 (MKN-1) was greater than 4 µM. It also gave an IC50 (NB14) greater than 4 µM, an IC50 (NBsusSR) of 0.489 µM and an IC50 (NCI-H1048) of 2.11 µM. It also gave an IC50 (NCI-H1651) greater than 4 µM, an IC50 (NCI-H1792) greater than 4 µM and an IC50 (NCI-H2347) greater than 4 µM. The IC50 (NCI-H2452) was greater than 4 µM, the IC50 (NCI-H28) was 3.05 µM and the IC50 (NCI-H650) was greater than 4 µM. The IC50 (NCI-H810) was greater than 4 µM, the IC50 (OC-314) was greater than 4 µM and the IC50 (OVCAR-3) was greater than 4 µM. It also gave an IC50 (PC-3) greater than 4 µM, an IC50 (RH-18) greater than 4 µM and an IC50 (RO82-W-1) greater than 4 µM. For the same compound, the IC50 (RT-112) was greater than 4 µM, the IC50 (SCC-4) was greater than 4 µM and the IC50 (SK-MEL3) was greater than 4 µM. The IC50 (SNU-449) was 2.57 µM, the IC50 (T-24) was greater than 4 µM and the IC50 (T84) was greater than 4 µM. For the same compound, the IC50 (647-V) was greater than 4 µM, the IC50 (A2058) was greater than 4 µM and the IC50 (A549) was 1.4 µM. It also gave an IC50 (ACHN) greater than 4 µM, an IC50 (BPH-1) of 0.314 µM and an IC50 (CAL-51) greater than 4 µM. It also gave an IC50 (CAL-85-1) greater than 4 µM, an IC50 (U-118-MG) greater than 4 µM and an IC50 (ZR-75-30) greater than 4 µM. It also gave an IC50 (CFPAC-1) greater than 4 µM.

Nc1ccccc1NC(=O)c1ccc(CNC(=O)OCc2cccnc2)cc1 [ENTINOSTAT] gave an IC50 (EW-12) greater than 5 µM, an IC50 (IMR-5) greater than 5 µM and an IC50 (NB14) of 0.726 µM. It also gave an IC50 (NCI-H1694) of 4.13 µM, an IC50 (NCI-H2227) of 3.02 µM and an IC50 (NCI-H716) greater than 5 µM. It also gave an IC50 (NCI-H889) greater than 5 µM and an IC50 (SKM-1) greater than 5 µM.

CC(C)C[C@H](NC(=O)[C@H](Cc1ccccc1)NC(=O)c1cnccn1)B(O)O [BORTEZOMIB] showed an IC50 (EW-12) greater than 0.02 µM, an IC50 (IMR-5) greater than 0.02 µM and an IC50 (NB14) of 0.018 µM. It also gave an IC50 (NCI-H1694) of 0.00758 µM, an IC50 (NCI-H2227) greater than 0.02 µM and an IC50 (NCI-H716) greater than 0.02 µM. The IC50 (NCI-H889) was greater than 0.02 µM and the IC50 (SKM-1) was greater than 0.02 µM.

— ChEMBL document CHEMBL1201861, “Genomics of Drug Sensitity in Cancer screening data, Wellcome Trust Sanger Institute”
